# Measured values: PubChem BioAssay AID2060624 (Molecular Pharmacology Branch, DTP, NCI, 2025)
# Tested on: 217524-143-R1-J4-PDC spheroids with HUVEC/MSC, viability
# Test: Anticancer human tumor 217524-143-R1-J4-PDC patient-derived pancreatic carcinoma cell line growth inhibition [CLK]
# Settings: for IC50: curve of first compound; for viability, T/C: stronger effect = lower value
# Summary of the method: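 Multi-cell-type spheroids combined patient-derived tumor cells with HUVEC endothelial cells and human mesenchymal stem cells. Paired agents were dosed in half-log steps down from about clinical Cmax, or from 10 microM where Cmax was unknown.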
# [1] = second compound 0.0316 µM, first compound 0.0316 µM
# [2] = second compound 0.0316 µM, first compound 0.1 µM
# [3] = second compound 0.1 µM, first compound 0.0316 µM
# [4] = second compound 0.1 µM, first compound 0.1 µM
# [5] = second compound 0.316 µM, first compound 0.0316 µM
# [6] = second compound 0.316 µM, first compound 0.1 µM
# [7] = second compound 1 µM, first compound 0.0316 µM
# [8] = second compound 1 µM, first compound 0.1 µM
# [9] = second compound 3.16 µM, first compound 0.0316 µM
# [10] = second compound 3.16 µM, first compound 0.1 µM
# [11] = second compound 10 µM, first compound 0.0316 µM
# [12] = second compound 10 µM, first compound 0.1 µM
# [13] = second compound 0.0316 µM, first compound 0.316 µM
# [14] = second compound 0.0316 µM, first compound 1 µM
# [15] = second compound 0.0316 µM, first compound 3.16 µM
# [16] = second compound 0.0316 µM, first compound 10 µM
# [17] = second compound 0.1 µM, first compound 0.316 µM
# [18] = second compound 0.1 µM, first compound 1 µM
# [19] = second compound 0.1 µM, first compound 3.16 µM
# [20] = second compound 0.1 µM, first compound 10 µM
# [21] = second compound 0.316 µM, first compound 0.316 µM
# [22] = second compound 0.316 µM, first compound 1 µM
# [23] = second compound 0.316 µM, first compound 3.16 µM
# [24] = second compound 0.316 µM, first compound 10 µM
# [25] = second compound 1 µM, first compound 0.316 µM
# [26] = second compound 1 µM, first compound 1 µM
# [27] = second compound 1 µM, first compound 3.16 µM
# [28] = second compound 1 µM, first compound 10 µM
# [29] = second compound 3.16 µM, first compound 0.316 µM
# [30] = second compound 3.16 µM, first compound 1 µM
# [31] = second compound 3.16 µM, first compound 3.16 µM
# [32] = second compound 3.16 µM, first compound 10 µM
# [33] = second compound 10 µM, first compound 0.316 µM
# [34] = second compound 10 µM, first compound 1 µM
# [35] = second compound 10 µM, first compound 3.16 µM
# [36] = second compound 10 µM, first compound 10 µM
# 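Further: spheroids exposed to agents for seven days before reading.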
# 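Wherever viability, T/C is given: 100% = DMSO vehicle control viability.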
smiles,measurement,setting,value
Cn1ncnc1[C@H]1c2n[nH]c(=O)c3cc(F)cc(c23)N[C@@H]1c1ccc(F)cc1 + CNC(=O)c1ccc(Nc2nc(OC3CCCC3)c3c(-c4ccc5nc(C)oc5c4)c[nH]c3n2)c(OC)c1,IC50,second compound 0.0316 µM,> 100 nM
same,IC50,second compound 0.1 µM,< 0.316 nM
same,IC50,second compound 0.316 µM,< 0.316 nM
same,IC50,second compound 1 µM,< 0.316 nM
same,IC50,second compound 3.16 µM,< 0.316 nM
same,IC50,second compound 10 µM,< 0.316 nM
same,"viability, T/C","second compound 0.0316 µM, first compound 0.000316 µM",101%
same,"viability, T/C","second compound 0.0316 µM, first compound 0.001 µM",68.8%
same,"viability, T/C","second compound 0.0316 µM, first compound 0.00316 µM",86.1%
same,"viability, T/C","second compound 0.0316 µM, first compound 0.01 µM",85%
same,"viability, T/C",[1],83.4%
same,"viability, T/C",[2],75.5%
same,"viability, T/C","second compound 0.1 µM, first compound 0.000316 µM",43.6%
same,"viability, T/C","second compound 0.1 µM, first compound 0.001 µM",44.8%
same,"viability, T/C","second compound 0.1 µM, first compound 0.00316 µM",41.6%
same,"viability, T/C","second compound 0.1 µM, first compound 0.01 µM",37.5%
same,"viability, T/C",[3],38.6%
same,"viability, T/C",[4],31.4%
same,"viability, T/C","second compound 0.316 µM, first compound 0.000316 µM",34.5%
same,"viability, T/C","second compound 0.316 µM, first compound 0.001 µM",42.8%
same,"viability, T/C","second compound 0.316 µM, first compound 0.00316 µM",34.1%
same,"viability, T/C","second compound 0.316 µM, first compound 0.01 µM",39%
same,"viability, T/C",[5],39.9%
same,"viability, T/C",[6],37.3%
same,"viability, T/C","second compound 1 µM, first compound 0.000316 µM",23.3%
same,"viability, T/C","second compound 1 µM, first compound 0.001 µM",32.8%
same,"viability, T/C","second compound 1 µM, first compound 0.00316 µM",30.6%
same,"viability, T/C","second compound 1 µM, first compound 0.01 µM",23.3%
same,"viability, T/C",[7],21.3%
same,"viability, T/C",[8],25.8%
same,"viability, T/C","second compound 3.16 µM, first compound 0.000316 µM",28.6%
same,"viability, T/C","second compound 3.16 µM, first compound 0.001 µM",23.7%
same,"viability, T/C","second compound 3.16 µM, first compound 0.00316 µM",27.2%
same,"viability, T/C","second compound 3.16 µM, first compound 0.01 µM",23.2%
same,"viability, T/C",[9],24.4%
same,"viability, T/C",[10],23.6%
same,"viability, T/C","second compound 10 µM, first compound 0.000316 µM",29%
same,"viability, T/C","second compound 10 µM, first compound 0.001 µM",25.5%
same,"viability, T/C","second compound 10 µM, first compound 0.00316 µM",24.7%
same,"viability, T/C","second compound 10 µM, first compound 0.01 µM",24.6%
same,"viability, T/C",[11],24.3%
same,"viability, T/C",[12],21.2%
Nc1ccn(C2OC(CO)C(O)C2(F)F)c(=O)n1 (stereo unspecified) + CNC(=O)c1ccc(Nc2nc(OC3CCCC3)c3c(-c4ccc5nc(C)oc5c4)c[nH]c3n2)c(OC)c1,IC50,second compound 0.0316 µM,47 nM
same,IC50,second compound 0.1 µM,< 31.6 nM
same,IC50,second compound 0.316 µM,< 31.6 nM
same,IC50,second compound 1 µM,< 31.6 nM
same,IC50,second compound 3.16 µM,< 31.6 nM
same,IC50,second compound 10 µM,< 31.6 nM
same,"viability, T/C",[1],60.1%
same,"viability, T/C",[2],31%
same,"viability, T/C",[13],25.2%
same,"viability, T/C",[14],29.9%
same,"viability, T/C",[15],30.4%
same,"viability, T/C",[16],25.1%
same,"viability, T/C",[3],35.3%
same,"viability, T/C",[4],28.8%
same,"viability, T/C",[17],20.8%
same,"viability, T/C",[18],33.2%
same,"viability, T/C",[19],29%
same,"viability, T/C",[20],28.1%
same,"viability, T/C",[5],28.9%
same,"viability, T/C",[6],25.1%
same,"viability, T/C",[21],18.5%
same,"viability, T/C",[22],23.5%
same,"viability, T/C",[23],20.6%
same,"viability, T/C",[24],21.3%
same,"viability, T/C",[7],24.8%
same,"viability, T/C",[8],17.1%
same,"viability, T/C",[25],13.6%
same,"viability, T/C",[26],19.9%
same,"viability, T/C",[27],13.3%
same,"viability, T/C",[28],14.5%
same,"viability, T/C",[9],21.8%
same,"viability, T/C",[10],18.1%
same,"viability, T/C",[29],11.2%
same,"viability, T/C",[30],13.5%
same,"viability, T/C",[31],14.3%
same,"viability, T/C",[32],11.6%
same,"viability, T/C",[11],23.4%
same,"viability, T/C",[12],18.6%
same,"viability, T/C",[33],12.8%
same,"viability, T/C",[34],10.8%
same,"viability, T/C",[35],13.8%
same,"viability, T/C",[36],11.8%
O=c1[nH]cc(F)c(=O)[nH]1 + CNC(=O)c1ccc(Nc2nc(OC3CCCC3)c3c(-c4ccc5nc(C)oc5c4)c[nH]c3n2)c(OC)c1,IC50,second compound 0.0316 µM,768 nM
same,IC50,second compound 0.1 µM,< 31.6 nM
same,IC50,second compound 0.316 µM,< 31.6 nM
same,IC50,second compound 1 µM,< 31.6 nM
same,IC50,second compound 3.16 µM,< 31.6 nM
same,IC50,second compound 10 µM,< 31.6 nM
same,"viability, T/C",[1],79.9%
same,"viability, T/C",[2],86.3%
same,"viability, T/C",[13],61.6%
same,"viability, T/C",[14],48.3%
same,"viability, T/C",[15],30.7%
same,"viability, T/C",[16],29.1%
same,"viability, T/C",[3],40.4%
same,"viability, T/C",[4],37.5%
same,"viability, T/C",[17],39.4%
same,"viability, T/C",[18],35.6%
same,"viability, T/C",[19],30%
same,"viability, T/C",[20],26.7%
same,"viability, T/C",[5],32.3%
same,"viability, T/C",[6],36.7%
same,"viability, T/C",[21],31.5%
same,"viability, T/C",[22],29.9%
same,"viability, T/C",[23],29.1%
same,"viability, T/C",[24],21.5%
same,"viability, T/C",[7],29.6%
same,"viability, T/C",[8],26.7%
same,"viability, T/C",[25],24.8%
same,"viability, T/C",[26],21.9%
same,"viability, T/C",[27],20.2%
same,"viability, T/C",[28],13.9%
same,"viability, T/C",[9],27%
same,"viability, T/C",[10],30.4%
same,"viability, T/C",[29],21.7%
same,"viability, T/C",[30],23.4%
same,"viability, T/C",[31],18.5%
same,"viability, T/C",[32],13.4%
same,"viability, T/C",[11],23.2%
same,"viability, T/C",[12],27.4%
same,"viability, T/C",[33],22.4%
same,"viability, T/C",[34],22.6%
same,"viability, T/C",[35],17.9%
same,"viability, T/C",[36],13.1%
